Patent US20210024507A1, “Compounds” (Step Pharma S.A.S., priority 2018, published 2021)

System: human CTPS1
Assay: RapidFire/MS-based enzyme selectivity assay, human CTPS1
Type: biochemical
Settings: calculated from the CTPS1 and CTPS2 IC50 values
Procedure: The enzyme inhibitory activities against each target isoform of interest may be determined for the compounds of the invention using an optimised RapidFire high-throughput mass spectrometry (RF/MS) assay format. RF/MS assays for both human CTPS1 and CTPS2 may be performed in assay buffer consisting of 50mM HEPES (Merck), 20mM MgCl2, 5mM KCI, 1mM DTT, 0.01% Tween-20, pH to 8.0 accordingly. Human full-length active C-terminal FLAG-His-tag CTPS1 (UniProtKB - P17812, CTPS[1-591]-[…]) may be obtained from Proteros biostructures GmbH. Human full length active C-terminal FLAG-His-Avi tagged CTPS2 (UniProtKB-Q9NRF8, CTPS2 [1-586]- […]) may be obtained from Harker Bio.
Human CTPS (1 or 2) protein may be prepared in lx assay buffer to the final working protein concentration required for the reaction. A 2uL volume per well of 2× CTPS (1 or 2) protein may be mixed with 40nL of compound using acoustic (ECHO) delivery and incubated for 10 minutes at 25° C. Each isoform enzymatic reaction may be subsequently initiated by addition of 2uL per well of a 2× substrate mix in assay buffer. For hCTPS1: ATP (0.3mM), UTP (0.2mM), GTP (0.07mM) and L-glutamine (0.1mM). For hCTPS2: ATP (0.1mM), UTP (0.04mM), GTP (0.03mM) and L-glutamine (0.1mM). Each mixture may be incubated for an appropriate amount of time per isoform within the determined linear phase of the reaction at 25° C. A 60uL volume of stop solution (1% formic acid with 0.5uM ^13C9-^15N3-CTP in H2O) may be added and the plate immediately heat-sealed and centrifuged for 10 minutes at 4,000rpm. Following centrifugation, plates may be loaded onto the Agilent RapidFire microfluidic solid phase extraction system coupled to an AP14000 triple quadrupole mass spectrometer (RF/MS) for analysis.
In all cases, the enzyme converts UTP to CTP. Highly specific and sensitive multiple reaction monitoring (MRM) MS methods may be optimised for the detection of the enzymatic reaction product, CTP, and the stable isotope labelled product standard ^13C9-^15N3-CTP. Readout for data analysis may be calculated as the ratio between the peak area of the product CTP and the internal standard ^13C9-^15N3-CTP. For data reporting, the following equation may be used:
[formula] (R=ratio/readout, P=product signal area, IS=internal standard signal area)
For each screening plate, the means of the negative (DMSO) and positive control values were used for the calculation of the respective assay window (S/B) and Z′ values. The median of the respective control values was used for calculation of percent inhibition according to the following equation:
[formula] (I=Inhibition, Rneg=median of negative control readout values, Rpos=median of positive control readout values, Rsample=sample readout value)
(§1) Percentage inhibition was then plotted against compound concentration, and the 50% inhibitory concentration (IC50) was determined from the resultant concentration-response curve.
Fold selectivity between CTPS1 and CTPS2 was subsequently calculated according to the following equation: […]

SMILES | Selectivity (fold selectivity between CTPS1 and CTPS2)
CCOc1cncc(-c2ccc(NC(=O)C(C)(C)c3ccnc(NS(=O)(=O)CC)n3)cc2)n1 [P74, N-(4-(6-ethoxypyrazin-2-yl)phenyl)-2-(2-(ethylsulfonamido)pyrimidin-4-yl)-2-methylpropanamide] | ++ (>30-60 fold (++))
CC(C)Oc1cncc(-c2ccc(NC(=O)Cc3ccnc(NS(=O)(=O)C4CC4)n3)c(F)c2)n1 [P12, 2-(2-(cyclopropanesulfonamido)pyrimidin-4-yl)-N-(2-fluoro-4-(6-isopropoxypyrazin-2-yl)phenyl)acetamide] | ++ (>30-60 fold (++))
CCOc1cncc(-c2ccc(C(=O)NCc3ccnc(NS(=O)(=O)C4CC4)n3)cc2)n1 [P118, N-((2-(cyclopropanesulfonamido)pyrimidin-4-yl)methyl)-4-(6-ethoxypyrazin-2-yl)benzamide] | +++ (>60 fold (+++))
CCOc1cncc(-c2ccc(NC(=O)C3(c4ccnc(NS(=O)(=O)C5CC5)n4)CCOCC3)nc2)n1 [P115, 4-(2-(cyclopropanesulfonamido)pyrimidin-4-yl)-N-(5-(6-ethoxypyrazin-2-yl)pyridin-2-yl)tetrahydro-2H-pyran-4-carboxamide] | +++ (>60 fold (+++))
CCOc1cncc(-c2ccc(NC(=O)Cc3ccnc(NS(=O)(=O)C4CC4)n3)cc2)n1 [P18, 2-(2-(cyclopropanesulfonamido)pyrimidin-4-yl)-N-(4-(6-ethoxypyrazin-2-yl)phenyl)acetamide] | ++ (>30-60 fold (++))
CCOc1cncc(-c2ccc(NC(=O)C3(c4ccnc(NS(=O)(=O)C5CC5)n4)CCCC3)cc2)n1 [P2, 1-(2-(Cyclopropanesulfonamido)pyrimidin-4-yl)-N-(4-(6-ethoxypyrazin-2-yl)phenyl)cyclopentanecarboxamide] | +++ (>60 fold (+++))
O=C(Cc1ccnc(NS(=O)(=O)C2CC2)n1)Nc1ccc(-c2cccnc2)cc1 [P16, 2-(2-(cyclopropanesulfonamido)pyrimidin-4-yl)-N-(4-(pyridin-3-yl)phenyl)acetamide] | ++ (>30-60 fold (++))
CCOc1cncc(-c2ccc(NC(=O)C(OC)c3ccnc(NS(=O)(=O)C4CC4)n3)cc2)n1 (centres unmarked) [P164, 2-(2-(cyclopropanesulfonamido)pyrimidin-4-yl)-N-(4-(6-ethoxypyrazin-2-yl)phenyl)-2-methoxyacetamide] | + (2-30 fold (+))
CCOc1cncc(-c2ccc(NC(=O)C(C)(C)c3ccnc(NS(=O)(=O)C4CC4)n3)c(C#N)c2)n1 [P34, N-(2-cyano-4-(6-ethoxypyrazin-2-yl)phenyl)-2-(2-(cyclopropanesulfonamido)pyrimidin-4-yl)-2-methylpropanamide] | + (2-30 fold (+))
CCOc1cncc(-c2ccc(NC(=O)C3(c4ccnc(NS(=O)(=O)C5CC5)n4)CC3)cc2)n1 [P83, 1-(2-(cyclopropanesulfonamido)pyrimidin-4-yl)-N-(4-(6-ethoxypyrazin-2-yl)phenyl)cyclopropanecarboxamide] | +++ (>60 fold (+++))
CC(C)(NC(=O)c1ccc(-c2cncc(C(F)(F)F)n2)cc1)c1cncc(NS(=O)(=O)C2CC2)n1 [P222, N-(2-(6-(cyclopropanesulfonamido)pyrazin-2-yl)propan-2-yl)-4-(6-(trifluoromethyl)pyrazin-2-yl)benzamide] | + (2-30 fold (+))
CCOc1cncc(-c2ccc(NC(=O)C(F)(CC)c3ccnc(NS(C)(=O)=O)n3)nc2)n1 (centres unmarked) [P151, N-(5-(6-ethoxypyrazin-2-yl)pyridin-2-yl)-2-fluoro-2-(2-(methylsulfonamido)pyrimidin-4-yl)butanamide] | +++ (>60 fold (+++))
CC(C)Oc1cncc(-c2ccc(NC(=O)C(C)(C)c3ccnc(NS(=O)(=O)C4CC4)n3)nc2)n1 [P9, 2-(2-(cyclopropanesulfonamido)pyrimidin-4-yl)-N-(5-(6-isopropoxypyrazin-2-yl)pyridin-2-yl)-2-methylpropanamide] | +++ (>60 fold (+++))
CCOc1cncc(-c2ccc(NC(=O)C(C)(C)c3ccnc(NS(=O)(=O)C4CC4)n3)cc2)n1 [P65, 2-(2-(cyclopropanesulfonamido)pyrimidin-4-yl)-N-(4-(6-ethoxypyrazin-2-yl)phenyl)-2-methylpropanamide] | ++ (>30-60 fold (++))
CCOc1cncc(-c2ccc(NC(=O)C(CCOC)c3ccnc(NS(=O)(=O)C4CC4)n3)nc2)n1 (centres unmarked) [P145, 2-(2-(cyclopropanesulfonamido)pyrimidin-4-yl)-N-(5-(6-ethoxypyrazin-2-yl)pyridin-2-yl)-4-methoxybutanamide] | +++ (>60 fold (+++))
CCOc1cncc(-c2ccc(NC(=O)C(C)(C)c3cncc(NS(=O)(=O)C4CC4)n3)nc2)n1 [P195, 2-(6-(cyclopropanesulfonamido)pyrazin-2-yl)-N-(5-(6-ethoxypyrazin-2-yl)pyridin-2-yl)-2-methylpropanamide] | +++ (>60 fold (+++))

Molecular target: T1, human CTPS1 (Homo sapiens, UniProt P17812)
T1 construct: purchased Proteros biostructures GmbH
T1 sequence (P17812 1-591): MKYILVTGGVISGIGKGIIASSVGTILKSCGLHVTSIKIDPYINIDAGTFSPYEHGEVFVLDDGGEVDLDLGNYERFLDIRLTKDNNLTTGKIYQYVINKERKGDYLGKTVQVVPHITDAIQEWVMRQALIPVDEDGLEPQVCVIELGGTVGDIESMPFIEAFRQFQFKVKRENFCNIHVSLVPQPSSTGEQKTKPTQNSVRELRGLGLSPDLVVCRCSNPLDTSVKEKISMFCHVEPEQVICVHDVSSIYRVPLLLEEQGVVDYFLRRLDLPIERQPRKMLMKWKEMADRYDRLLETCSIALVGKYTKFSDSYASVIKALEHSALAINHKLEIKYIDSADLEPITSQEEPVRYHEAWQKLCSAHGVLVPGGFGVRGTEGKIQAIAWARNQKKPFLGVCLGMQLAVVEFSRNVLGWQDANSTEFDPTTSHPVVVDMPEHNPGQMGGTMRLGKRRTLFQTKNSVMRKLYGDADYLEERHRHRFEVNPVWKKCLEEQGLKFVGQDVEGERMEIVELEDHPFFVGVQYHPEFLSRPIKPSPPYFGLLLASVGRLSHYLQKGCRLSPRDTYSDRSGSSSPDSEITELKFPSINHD
Assay: Human CTPS1 enzyme inhibition (ADP-Glo Max assay)
Type: biochemical
Settings: human full length CTPS1, 25° C., read-out: CTPS1 (Human CTPS1 Enzyme Inhibition, IC50 grouped by potency range)
Procedure: The enzyme inhibitory activities of compounds invented against the target of interest were determined using the ADP-GIoTM Max assay (Promega, UK). Assays for human CTPS1 were performed in lx assay buffer containing 50mM Tris, 10mM MgCl2, 0.01% Tween-20, pH to 8.0 accordingly. Finally, immediately before use, L-cysteine was added to the lx assay buffer to a final concentration of 2mM. All reagents are from Sigma-Aldrich unless specified otherwise. Human full length active C-terminal FLAG-Hiss-tag CTPS1 (UniProtKB - P17812, CTPS[1-591]-[…]) was obtained from Proteros biostructures GmbH.
Assay Procedure 3× human CTPS1 protein was prepared in lx assay buffer to the final working protein concentration required for the reaction. A 2uL volume per well of 3x human CTPS1 protein was mixed with 2uL per well of 3× test compound (compound prepared in lx assay buffer to an appropriate final 3× compound concentration respective to the concentration response curve designed for the compounds under test) for 10 minutes at 25° C. The enzymatic reaction was then initiated by addition of a 2uL per well volume of a pre-mixed substrate mix (UltraPure ATP from ADP-GIo™ Max kit (0.31mM), GTP (0.034mM), UTP (0.48mM) and L-glutamine (0.186mM)) and the mixture was incubated for an appropriate amount of time within the determined linear phase of the reaction at 25° C. under sealed plate conditions with constant agitation at 500 revolutions per minute (rpm). ADP-GIo™ Max reagent was added for 60 minutes ([…] per well) and subsequently ADP-GIo™ Max development reagent was added for 60 minutes (12uL per well) prior to signal detection in a microplate reader (EnVision® Multilabel Reader, Perkin Elmer). Following each reagent addition over the course of the assay, assay plates were pulse centrifuged for 30 seconds at 500rpm.
In all cases, the enzyme converts ATP to ADP and the ADP-GIo™ Max reagent subsequently depletes any remaining endogenous ATP in the reaction system. The ADP-GIo™ Max detection reagent converts the ADP that has been enzymatically produced back into ATP and using ATP as a substrate together with luciferin for the enzyme luciferase, light is generated which produces a detectable luminescence. […] The percentage inhibition produced by each concentration of compound was calculated using the equation shown below: […]
as §1

SMILES | IC50 [nM]
CCC(C(=O)Nc1ccc(-c2cncc(OC(C)C)n2)cc1F)c1ccnc(NS(=O)(=O)C2CC2)n1 (centres unmarked) [P97, 2-(2-(cyclopropanesulfonamido)pyrimidin-4-yl)-N-(2-fluoro-4-(6-isopropoxypyrazin-2-yl)phenyl)butanamide] | ≤ 100
